Experimental data taken from PMC8952364, “Polyphenols as Inhibitors of Antibiotic Resistant Bacteria—Mechanisms Underlying Rutin Interference with Bacterial Virulence” (Pharmaceuticals, 2022).
Values after ≈ are worked out from the molar mass of the structure shown.

What was measured:
P. aeruginosa IBRS P001 = experiment: Catheter biofilm inhibition model; format: cell-based, Pseudomonas aeruginosa; conditions: MIC and 0.5 MIC of rutin, 24 h
Protocol: The method was performed as described previously, with some modifications. Sterile silicon 16-mm Romed catheters (Van Oostveen Medical, Wilnis, The Netherlands) were cut into 1 cm lengths and placed in 24-well plates (Sarstedt, Nümbrecht, Germany). P. aeruginosa IBRS P001 and MRSA in TSB with 2% glucose (Torlak, Belgrade, Serbia) and rutin (0.25–1 MIC) were added for the inhibition assay. After incubation (37 °C, 24 h), the catheters were washed with PBS and transferred to 1.5 mL tubes. PBS was added and tubes were vortexed vigorously. The samples were diluted and seeded onto Plate Count Agar (HiMedia Laboratories, Mumbai, India). After being incubated at 37 °C for 24 h, the CFU (colony forming units) count was determined and the inhibition percentage relative to the untreated control was calculated.

S. infantis 1371/1 = experiment: Antimicrobial microdilution assay (MIC/MBC); format: cell-based, Salmonella Infantis; conditions: Salmonella enterica, 1371/1
In short: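 Broth microdilution with 0.5 McFarland suspension diluted twenty-fold and mixed 1:10 with compound (0.0039–1 mg/mL, from 30% ethanol stocks); 24 h at 37 °C. Triplicate runs.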

[1] = system: P. aeruginosa IBRS P001 elastase production; experiment: Elastase assay (Elastin-Congo red); format: cell-based, Pseudomonas aeruginosa; conditions: 0.25 mg/mL (0.5 MIC), compared to the control
Protocol: After 48 h of incubation (37 °C, 180 rpm), the mixtures were collected and centrifuged at 15,700× g for 15 min. Quantification of the elastase activity was measured at 495 nm using a Plate Reader Infinite 200 pro (MTX Lab Systems, Vienna, VA, USA). An untreated culture supernatant was used as a positive control (supplemented with the solvent). The experiment was done in triplicate.

HaCaT cells = experiment: Cytotoxicity in HaCaT cell line (crystal violet assay); format: cell-based, human; conditions: Homo sapiens, HaCaT, 24 h, read-out: IC50 (compound concentration that inhibited 50% of the cell growth)
In short: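 HaCaT keratinocytes seeded 1 × 10^4 cells/well 24 h before treatment, then exposed to polyphenols for 24 h. Viable cells stained with crystal violet, absorbance at 590 nm. IC50 in μg/mL, triplicate with three readings each, mean ± SD.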

MRSA IBRS MRSA 011 = experiment: Bacterial adhesion to HaCaT cells; format: cell-based, Staphylococcus aureus
Protocol: HaCaT cells were grown until confluence in 24-well plates with an adhesive bottom. The medium was removed and DMEM without FBS containing the rutin (MIC and 0.5 MIC) was added. The samples were incubated at 37 °C for 15 min, and bacteria (P. aeruginosa IBRS P001 and MRSA IBRS MRSA 011) were added. After incubation at 37 °C for 1 h, the cells were washed three times with DMEM without FBS and lyzed with 1 mL of 1% (v/v) Tween-20 (SigmaAldrich, Germany) at 37 °C for 30 min. Afterwards, dilutions of the bacterial suspension in each well were made and seeded on Plate Count Agar plates. The number of CFU was determined after incubation at 37 °C for 18 h, and the percentage of adhered bacterial cells was calculated following the equation:% (adhesion relative to the control) = 100 × CFU (treated)/CFU (control)
With CFU (treated) representing the number of CFUs after the treatment of cells with rutin and CFU (control) representing the number of bacterial CFUs in the untreated sample. The solvent treated sample was used as the control.

[2] = system: 24 h old P. aeruginosa IBRS P001 biofilms; experiment: Biofilm eradication, Congo red binding assay (exopolysaccharide); format: cell-based, Pseudomonas aeruginosa
Protocol: The estimation of rutin’s impact on biofilm exopolysaccharide production (EPS) was determined by the Congo red binding assay. P. aeruginosa IBRS P001 biofilm EPS production was determined as previously described. […] The planktonic cells were removed, and the adherent cells were washed with PBS. Wells were stained with 1% (w/v) Congo red (SigmaAldrich, Germany) in the dark for 30 min. Wells were aspirated and subsequently the bound dye was solubilized with 200 μL DMSO. Absorbance at 490 nm was measured in a microtiter plate reader Multiskan™ FC microplate photometer (Thermo Scientific™, United States) and the inhibition percentage of EPS production was calculated according to the following equation:%Inhibition = [(A490control − A490sample)/A490control] × 100
The bacterial cells were incubated in TSB enriched with 2% glucose in 96-well plates (Sarstedt, Germany) with adhesive bottom at 37 °C for 24 h. After incubation, wells were washed with PBS, and rutin (MBC–4 MBC) in TSB with 2% glucose was added. Incubation continued at 37 °C for another 24 h. The planktonic cells were removed.
The assays continued as described above for the crystal violet antibiofilm assay for the measurement of biofilm mass, biofilm MTT assay for the interference with cell viability, Congo red binding assay for estimation of exopolysaccharide production, and eDNA assay.

For `C[C@@H]1O[C@@H](OC[C@H]2O[C@@H](Oc3c(-c4ccc(O)c(O)c4)oc4cc(O)cc(O)c4c3=O)[C@H](O)[C@@H](O)[C@@H]2O)[C@H](O)[C@H](O)[C@H]1O` [Rutin, rutin], the “biofilm inhibition on catheter” value (P. aeruginosa IBRS P001) was 100%, the “number of colonies attached to the urinary catheters” value (P. aeruginosa IBRS P001) was 0 and the MIC (S. infantis 1371/1; 37 °C, 24 h, read-out: MIC) was 1000 µg/mL (≈ 1640 µM). For the same compound, the MBC (S. infantis 1371/1; subcultivation, 24 h at 37 °C, read-out: MBC) was 1000 µg/mL (≈ 1640 µM), the “reduction of elastase production” value [1] was 91% and the IC50 (HaCaT cells) was greater than 1000 µg/mL. The inhibition at 250 µg/mL (MRSA IBRS MRSA 011; Staphylococcus aureus, MRSA, Keratinocyte, read-out: reduction of CFU adhered to human keratinocytes (inhibition)) was 19%, the “reduction of CFU adhered to human keratinocytes” value (MRSA IBRS MRSA 011; rutin MIC) was 63% and the “exopolysaccharide production decreased to” value ([2]; 2 MBC) was 65%. The “exopolysaccharide production decreased to” value ([2]; 4 MBC) was 69% and the “exopolysaccharide production decreased to” value ([2]; MBC) was 89%.
